Experimental data taken from patent publication US20250161287A1, “METHODS, COMPOSITIONS, AND COMBINATIONS FOR PREVENTING OR TREATING CANCER RECURRENCE” (VUJA DE SCIENCES, INC., priority 2022, published 2025).
“Also recorded” adds a separate entry of the source. Where two headings read alike, the source gives them in different places.

Legend:
[1] = system: MG63.3 OS cells; experiment: in vitro SISGel assay with highly metastatic MG63.3 OS cells; assay type: cell-based, human; settings: for activity on 3D SISGel compared with 2D: MG63.3, SISGel vs 2D MTT 72 h; for lowest dose leading to appreciable inhibition of 3D growth: MG63.3 on SISGel, vs vehicle control, replicates=4
Excerpt: SISGel is comprised of porcine small intestine submucosa gel that was originally developed at Oklahoma State U., by R. Hurst (CSO) and M. Ihnat (Consultant) (Bailey-Downs et al. 2014; Hurst et al. 2013, 2015, 2016). Unlike BME which is derived from a tumor-based matrix, SISGel is derived from healthy stroma and provides a suppressive “normal” ECM. […] Conditions have been identified that promoted suppressed ME-type profile (FIG. 2A). […] In addition to SISGel's complementarity to the BME assay, it can also be conducted in a 96-well format, enabling a high-throughput system to model suppressed/dormant cancer cells to further validate the screening results in BME.

[2] = system: MG63.3 OS cell line; experiment: in vitro 3D BME assay with MG63.3 OS cell line; assay type: cell-based, human; settings: for minimal effective concentration: vs vehicle control, replicates=4, read-out: lowest dose leading to appreciable inhibition of 3D growth; for activity on 3D BME compared with 2D: MG63.3, 3D BME vs 2D MTT 72 h
Excerpt: (§1) 3D basement membrane extract (BME) assay was developed at the NCI Barkan (D. Barkan et al. 2008; Dalit Barkan and Green 2011; Hen and Barkan 2020). BME is purified from Engelbreth-Holm-Swarm (EHS) tumor, primarily made up of laminin, collagen IV, entactin, and heparin sulfate proteoglycans (Cultrex Reduced Growth Factor Basement Membrane Extract, PathClear n.d.), which allows it to more accurately reflect the 3D extracellular environment in the body.
(§2) Initially >150 selected therapeutic agents were tested on BME based on the likelihood for either a positive effect or a […] negative effect (as negative controls). […] These therapeutic agents were also tested in dose response (as broad as 1 pM-100 μM) for 2D cytotoxicity (MTT) and the IC50 was calculated. Where required, the hits from the initial screen were also further characterized at additional doses <100 nM in order to further determine the relative selectivity compared to the 2D IC50.
(§3) The influence of drug exposure on the metastatic phenotype was assessed in an in vitro assay of ME and escape from dormancy using a 3D BME assay as previously reported, which was adapted for use with OS cells.
(§4) Cultrex® PathClear, Reduced Growth Factor Basement Membrane Extract (BME—Bio-Techne, Minneapolis, MN) was added ([…]) to a 96-well plate and allowed to gel by incubating at 37° C. for ≥30 min. Cells were harvested, washed with DMEM (no glucose, no FBS, Gibco, Grand Island, NY) and centrifuged at 1500 g×5 mins. The media was aspirated and the remaining cell pellet flicked for about 10 s to ensure disaggregation.
(§5) Cells were diluted in assay media containing 2% BME, resuspended vigorously and 150 μL of the cell suspension was added on top of the gelled 3D BME layer. […] Cell numbers were determined in control vehicle (cells in media+0.1% DMSO), or treated wells and were measured on the indicated days by addition of 20 μL/well of MTS reagent (Cell Titer 96 Aqueous One, Promega, Madison, WI), followed by incubation at 37° C. for 2 h and absorbance measurements at 490 nm via plate reader (Molecular Devices, San Jose CA).
(§6) All conditions were conducted in quadruplicate and each experiment was carried out at least 3 separate times. All comparisons were made between treatment and vehicle control at concordant time points. Statistical analyses and non-linear regressions were derived using GraphPad Prism statistical software.

[3] = system: MG63.3 human OS cells; experiment: PuMA (ex vivo Pulmonary Metastasis Assay) with MG63.3; assay type: cell-based; settings: single agents, two doses: 100 nM and 1 μM (rapamycin 100 nM and 1 pM [sic]; AZD8055 10 and 100 nM), replicates=3-5
Procedure: FIG. 23A is a schematic illustrating the metastatic progression of GFP-expressing OS cells conducted by injecting single cells via tail vein injection, followed by lung excision and insufflation 15 mins post-injection. The formation of multicellular colonies in the mouse lung microenvironment can be assessed 14-21 days post-injection.
Dissected lungs are then sectioned and grown on sponges.

[4] = system: MG63.3 OS cell line; experiment: 2D growth / cytotoxicity by MTT, MG63.3; settings: for doses exhibiting cytotoxicity on 2D growth: 72 h
Procedure: (§7) The number of viable cells present in 2D culture was determined by MTT as previously reported. Briefly, cells were plated in 96-well plates at 2,000 cells/well and incubated at 37° C. for 24 h. After 24 h, the media was replaced with fresh media containing drugs at the desired concentrations (10 pM-10 μM) and incubated at 37° C. for 72 h. After 72 h, MTT reagent (20 L/well of a 5 mg/mL stock solution in sterile water; Sigma, St. Louis, MO) was added to each well and the plate was incubated at 37° C. for 2 h. DMSO ([…]) was then added to each well to solubilize the formazan crystals.
(§8) The resulting absorbance was measured at 490 nm via plate reader (Molecular Devices, San Jose, CA). DMSO (0.1%) was used as vehicle control, while 20 μM rapamycin was used as a positive cell-kill control. The experimental conditions were conducted in triplicate and each experiment was repeated three times. Regression lines and IC50's were calculated using a four-parameter variable slope nonlinear fit in GraphPad Prism.

[5] = system: K7M2 OS cell line; experiment: 2D growth / cytotoxicity by MTT, K7M2; assay type: cell-based, mouse; settings: for non-cytotoxic drug exposures in 2D: K7M2, MTT 72 h, 10 pM-100 μM
Procedure: as §7, with “After 24 h, the media was replaced with fresh media containing drugs at the desired concentrations (10 pM-10 μM) and incubated at 37° C. for 72 h.” left out
as §8

[6] = system: K7M2 OS cell line; experiment: in vitro 3D BME assay with K7M2 OS cell line; assay type: cell-based, mouse
Excerpt: as §1, §2, §3, §4, §5, §6

[7] = given alone at 2 mg/day, cited from earlier work
[8] = Homo sapiens, MG-63.3, MG63.3 on 3D BME

For `CO[C@H]1C[C@@H]2CC[C@@H](C)[C@@](O)(O2)C(=O)C(=O)N2CCCC[C@H]2C(=O)O[C@H]([C@H](C)C[C@@H]2CC[C@@H](OC(=O)C(C)(CO)CO)[C@H](OC)C2)CC(=O)[C@H](C)/C=C(\C)[C@@H](O)[C@@H](OC)C(=O)[C@H](C)C[C@H](C)/C=C/C=C/C=C/1C` [temsirolimus], the “activity on 3D SISGel compared with 2D” value [1] was “much stronger activity on 3D SISGel at significantly lower doses”, the “lowest dose leading to appreciable inhibition of 3D growth” value [1] was 1 pM and the minimal effective concentration [2, 8] was 0.001 µM. The “activity on 3D BME compared with 2D” value [2] was “much stronger activity on 3D BME at significantly lower doses” and the “inhibition of ME (loss of GFP signal in the lung tissue)” value [3] was “strong inhibition of ME”.

In the case of `CO[C@H]1C[C@@H]2CC[C@@H](C)[C@@](O)(O2)C(=O)C(=O)N2CCCC[C@H]2C(=O)O[C@H]([C@H](C)C[C@@H]2CC[C@@H](OP(C)(C)=O)[C@H](OC)C2)CC(=O)[C@H](C)/C=C(\C)[C@@H](O)[C@@H](OC)C(=O)[C@H](C)C[C@H](C)/C=C/C=C/C=C/1C` [ridaforolimus], the “activity on 3D SISGel compared with 2D” value [1] is reported as “much stronger activity on 3D SISGel at significantly lower doses”, the “lowest dose leading to appreciable inhibition of 3D growth” value [1] is reported as 100 pM and the minimal effective concentration [2, 8] is reported as 0.001 µM. For the same molecule, the “activity on 3D BME compared with 2D” value [2] was “much stronger activity on 3D BME at significantly lower doses”, the “doses exhibiting cytotoxicity on 2D growth” value (“doses exhibiting cytotoxicity” below) ([4]; human) was > 33000 nM and the “inhibition of ME (loss of GFP signal in the lung tissue)” value [3] was “strong inhibition of ME”.

In the case of `COc1ccc(-c2ccc3c(N4CCOC[C@@H]4C)nc(N4CCOC[C@@H]4C)nc3n2)cc1CO` [AZD8055], the minimal effective concentration [2, 8] is reported as 0.1 µM, the “activity on 3D BME compared with 2D” value [2] is reported as “much stronger activity on 3D BME at slightly lower doses” and the “doses exhibiting cytotoxicity” value ([4]; human) is reported as > 100 nM. For the same molecule, the “inhibition of ME (loss of GFP signal in the lung tissue)” value [3] was “strong inhibition of ME”.

With `CN1CCN(CCOc2cc(OC3CCOCC3)c3c(Nc4c(Cl)ccc5c4OCO5)ncnc3c2)CC1` [saracatinib] the “non-cytotoxic drug exposures in 2D” value [5] was “below 1 μM”.

In the case of `CC1(C)CCC(c2ccc(Cl)cc2)=C(CN2CCN(c3ccc(C(=O)NS(=O)(=O)c4ccc(N[C@H](CCN5CCOCC5)CSc5ccccc5)c(S(=O)(=O)C(F)(F)F)c4)cc3)CC2)C1` [navitoclax], the minimal effective concentration [2, 8] is reported as 0.5 µM, the “activity on 3D BME compared with 2D” value [2] is reported as “much stronger activity on 3D BME at similar doses; also recorded: more active in 3D than in 2D” and the “growth inhibition in the 3D BME assay” value ([2]; navitoclax 500-2000 nM, MG63.3) is reported as 50-60%. For the same molecule, the “doses exhibiting cytotoxicity” value ([4]; human) was ≥ 1000 nM and the “inhibition in 2D” value ([4]; navitoclax 500-2000 nM, MG63.3) was 0-25%.

With `CNC(=O)c1cc(Oc2ccc(NC(=O)Nc3ccc(Cl)c(C(F)(F)F)c3)c(F)c2)ccn1` [regorafenib] the “non-cytotoxic drug exposures in 2D” value [5] was “below 1 μM”, the inhibition at 1 µM ([2]; Homo sapiens, MG-63.3, 144 h, MG63.3, Day 6 growth by MTS, P<0.005) was ~20% and the “effect on metastatic phenotype / 3D growth in 3D BME (words)” value ([2]; MG63.3, Day 6 MTS, at or below 1 μM) was “consistently inhibit 3D growth across both cell lines”. For the same molecule, the “inhibition in 3D BME at 100 nM” value ([2]; MG63.3, Day 6 growth by MTS) was “Significant inhibition was not seen”, the “effect on cell number in 2D monolayer” value ([4]; MG63.3, MTT, exposures up to 1 μM / assessed exposures) was “no effect on remaining cell number” and the “effect on metastatic phenotype / 3D growth in 3D BME (words)” value ([6]; K7M2, Day 6 MTS, at or below 1 μM) was “consistently inhibit 3D growth across both cell lines”. The “inhibition in 3D BME at 100 nM” value ([6]; K7M2, Day 6 growth by MTS) was “Significant inhibition was not seen” and the inhibition at 1 µM ([6]; Mus musculus, 144 h, K7M2, Day 6 growth by MTS, P<0.005) was ~20%.

For `C=CCNc1c(O)cc2c(O)c1C[C@@H](C)C[C@H](OC)[C@H](O)[C@@H](C)/C=C(\C)[C@H](OC(N)=O)[C@@H](OC)/C=C\C=C(/C)C(=O)N2` [retaspimycin], the minimal effective concentration [2, 8] was 0.2 µM and the “doses exhibiting cytotoxicity” value ([4]; MG63.3, MTT, replicates=3) was > 400 nM.

In the case of `CO[C@H]1C[C@@H]2CC[C@@H](C)[C@@](O)(O2)C(=O)C(=O)N2CCCC[C@H]2C(=O)O[C@H]([C@H](C)C[C@@H]2CC[C@@H](O)[C@H](OC)C2)CC(=O)[C@H](C)/C=C(\C)[C@@H](O)[C@@H](OC)C(=O)[C@H](C)C[C@H](C)/C=C/C=C/C=C/1C` [rapamycin], the “doses leading to significant cytotoxicity on 2D growth” value ([5]; K7M2, MTT, 72 h, tested 15 nM-100 μM) is reported as ≥ 10 PM, the “lowest dose leading to appreciable inhibition of 3D growth” value [1] is reported as 1000 pM and the minimal effective concentration ([2]; MG63.3 on 3D BME) is reported as 0.0005 µM. For the same molecule, the “whole blood trough concentration mean” value ([7]; months 4 through 12) was 19 ng/mL, the “whole blood trough concentration range” value ([7]; months 4 through 12) was 14 to 22 ng/mL and the “whole blood trough concentration mean” value ([7]; year 3) was 16 ng/mL. For the same molecule, the “whole blood trough concentration range” value ([7]; year 3) was 11 to 22 ng/mL.

For `NS(=O)(=O)OC[C@@H]1C[C@@H](n2ccc3c(N[C@H]4CCc5ccccc54)ncnc32)C[C@@H]1O` [pevonedistat], the inhibition at 0.025 µM ([2]; Homo sapiens, MG-63.3, pevonedistat 25 nM, MG63.3) was 47%, the “activity on 3D BME compared with 2D” value [2] was “much stronger activity on 3D BME at significantly lower doses; also recorded: more active in 3D than in 2D” and the inhibition at 0.025 µM ([4]; Homo sapiens, MG-63.3, read-out: inhibition in 2D) was 20%. For the same molecule, the “doses exhibiting cytotoxicity” value ([4]; human) was > 10 nM.

For `CNC(=O)c1cccc(-c2ccc3c(N4CCOC[C@@H]4C)nc(N4CCOC[C@@H]4C)nc3n2)c1` [vistusertib], the minimal effective concentration [2, 8] was 0.1 µM, the “activity on 3D BME compared with 2D” value [2] was “slightly stronger activity on 3D BME at 100 nM” and the “doses exhibiting cytotoxicity” value ([4]; human) was > 0.64 nM.

With `CO[C@@H](C(=O)N1Cc2n[nH]c(NC(=O)c3ccc(N4CCN(C)CC4)cc3)c2C1)c1ccccc1` [danusertib] the minimal effective concentration [2, 8] was 0.1 µM, the “activity on 3D BME compared with 2D” value [2] was “much stronger activity on 3D BME at significantly lower doses” and the “doses exhibiting cytotoxicity” value ([4]; human) was > 100 nM.

With `Cn1ncnc1[C@H]1c2n[nH]c(=O)c3cc(F)cc(c23)N[C@@H]1c1ccc(F)cc1` [talazoparib] the minimal effective concentration [2, 8] was 0.0125 µM, the “activity on 3D BME compared with 2D” value [2] was “much stronger activity on 3D BME at significantly lower doses” and the “doses exhibiting cytotoxicity” value ([4]; human) was > 100 nM.
